≈ marks a conversion by molar mass, not a printed value.
Assays:
HSV-1 = test: HSV Antiviral (ELISA) Assay; type: cell-based, herpes simplex virus type 1; settings: Human alphaherpesvirus 1, Vero, Vero cells, HSV-1; read-out: IC50 Ug/ml HSV
Outline: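 Vero cells in DMEM/2% FBS pretreated with compound 30 min before HSV-1 infection (MOI 0.006), then ~24 h at 37 °C. Viral gD detected by ELISA with β-galactosidase secondary and 4-methylumbelliferyl-galactoside (ex 365/em 450 nm); IC50 from fluorescence versus untreated infected cells.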

HCMV wild-type = test: HCMV yield assay; type: cell-based, human cytomegalovirus; settings: Human betaherpesvirus 5, Fibroblast, human foreskin fibroblasts; read-out: IC50 Ug/ml HCMV
Outline: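 HCMV wild-type infected human foreskin fibroblast monolayers at MOI typically 0.2 with varying compound concentrations; virus yield harvested at 3 days post-infection and titered on fibroblasts without inhibitor, plaques counted at 2 weeks. IC50 or IC90 = compound amount reducing yield titer by 50% or 90%.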

VZV strain Ellen = test: VZV Antiviral (ELISA) Assay; type: cell-based, varicella-zoster virus; settings: Human alphaherpesvirus 3, Fibroblast, human foreskin fibroblast cells; for IC50: read-out: IC50 Ug/ml VZV; for inhibition at 10 µg/mL: read-out: % inhibition 10 ug/ml VZV, 10 ug/ml
Outline: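 First, fibroblasts are infected at multiplicity below 0.1 and kept overnight. The harvested cell mixture then goes onto compound-containing wells for three days at 37° C. Finally, cells are fixed and viral gpII is measured by fluorogenic ELISA.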

Row | IC50 (HSV-1) [µg/mL] | SMILES | IC50 (HCMV wild-type) [µg/mL] | IC50 (VZV strain Ellen) [µg/mL] | inhibition at 10 µg/mL (VZV strain Ellen) [%]
1 | 30 (≈ 82.4 µM) | COc1c(C)cc(NC(=S)Nc2ccc(NC(C)=O)cc2)cc1Cl [Example 877, N-{4-[3-(3-Chloro-4-methoxy-5-methyl-phenyl)-thioureido]-phenyl}-acetamide] | 2 (≈ 5.5 µM) | > 10 | 15
2 | 40 (≈ 114 µM) | COc1ccc(Cl)c(NC(=S)Nc2ccc(NC(C)=O)cc2)c1 [Example 881, N-{4-[3-(2-Chloro-5-methoxy-phenyl)-thioureido]-phenyl}-acetamide] | > 50 | > 10 | 12
3 | > 50 | CC(=O)Nc1ccc(NC(=S)Nc2cc(Cl)c(OCC(N)=O)c(Cl)c2)cc1 [Example 882, 2-{4-[3-(4-Acetylamino-phenyl)-thioureido]-2,6-dichloro-phenoxy}-acetamide] | > 50 | > 10 | 15
4 | 25 (≈ 61.1 µM) | CC(=O)Nc1ccc(NC(=S)Nc2cc(Cl)c(OCC#N)c(Cl)c2)cc1 [Example 886, N-(4-{3-[3,5-Dichloro-4-(2-nitrilo-ethoxy)-phenyl]-thioureido}-phenyl)-acetamide] | 10 (≈ 24.4 µM) | > 15 | 50
5 | 2 (≈ 5.99 µM) | CC(=O)Nc1ccc(NC(=S)Nc2ccc(C)c(Cl)c2)cc1 [Example 889, N-{4-[3-(3-Chloro-4-methyl-phenyl)-thioureido]-phenyl}-acetamide] | 1.2 (≈ 3.59 µM) | > 10 | 1
6 | 20 (≈ 59.9 µM) | CC(=O)Nc1ccc(NC(=S)Nc2cc(Cl)ccc2C)cc1 [Example 890, N-{4-[3-(5-Chloro-2-methyl-phenyl)-thioureido]-phenyl}-acetamide] | 35 (≈ 105 µM) | > 10 | 20
7 | 10 (≈ 27.2 µM) | CC(=O)Nc1ccc(NC(=S)Nc2cc(Cl)c(C)c(Cl)c2)cc1 [Example 892, N-{4-[3-(3,5-Dichloro-4-methyl-phenyl)-thioureido]-phenyl}-acetamide] | 1 (≈ 2.72 µM) | > 10 | 25
8 | > 50 | CC(=O)Nc1ccc(NC(=S)Nc2ccc(C(=O)O)c(Cl)c2)cc1 [Example 898, 4-[3-(4-Acetylamino-phenyl)-thioureido]-2-chloro-benzoic acid] | > 50 | > 10 | 0
9 | 1.5 (≈ 4.23 µM) | CC(=O)Nc1ccc(NC(=S)Nc2ccc(Cl)c(Cl)c2)cc1 [Example 901, N-{4-[3-(3,4-Dichloro-phenyl)-thioureido]-phenyl}-acetamide] | 2.5 (≈ 7.06 µM) | > 10 | 1
10 | 4 (≈ 11.8 µM) | CC(=O)Nc1ccc(NC(=S)Nc2ccc(F)c(Cl)c2)cc1 [Example 902, N-{4-[3-(3-Chloro-4-fluoro-phenyl)-thioureido]-phenyl}-acetamide] | 12 (≈ 35.5 µM) | > 10 | 1
11 | 10 (≈ 22.4 µM) | CC(=O)Nc1ccc(NC(=S)Nc2ccc(I)c(Cl)c2)cc1 [Example 903, N-{4-[3-(3-Chloro-4-iodo-phenyl)-thioureido]-phenyl}-acetamide] | 0.3 (≈ 0.673 µM) | > 10 | 26
12 | 4 (≈ 10 µM) | CC(=O)Nc1ccc(NC(=S)Nc2ccc(Br)c(Cl)c2)cc1 [Example 904, N-{4-[3-(4-Bromo-3-chloro-phenyl)-thioureido]-phenyl}-acetamide] | 1 (≈ 2.51 µM) | > 10 | 26
13 | > 50 | CC(=O)Nc1ccc(NC(=S)Nc2ccc(N(CCO)CCO)c(Cl)c2)cc1 [Example 905, N-[4-(3-{4-[Bis-(2-hydroxy-ethyl)-amino]-3-chloro-phenyl}-thioureido)-phenyl]-acetamide] | > 50 | > 10 | 36
14 | > 10 | CCCCCCN(C)c1ccc(NC(=S)Nc2ccc(NC(C)=O)cc2)cc1Cl [Example 906, N-(4-{3-[3-Chloro-4-(hexyl-methyl-amino)-phenyl]-thioureido}-phenyl)-acetamide] | 1.5 (≈ 3.46 µM) | > 10 | 32
15 | > 10 | CC(=O)Nc1ccc(NC(=S)Nc2ccc(N(C)CC(C)C)c(Cl)c2)cc1 [Example 907, N-(4-{3-[3-Chloro-4-(isobutyl-methyl-amino)-phenyl]-thioureido}-phenyl)-acetamide] | 3 (≈ 7.41 µM) | > 10 | 19
16 | > 10 | CC(=O)Nc1ccc(NC(=S)Nc2ccc(C(F)(F)F)c(Cl)c2)cc1 [Example 908, N-{4-[3-(3-Chloro-4-trifluoromethyl-phenyl)-thioureido]-phenyl}-acetamide] | 0.6 (≈ 1.55 µM) | > 10 | 36
17 | > 10 | CC(=O)Nc1ccc(NC(=S)Nc2ccc(-c3ccno3)c(Cl)c2)cc1 [Example 924, N-{4-[3-(3-Chloro-4-isoxazol-5-yl-phenyl)-thioureido]-phenyl}-acetamide] | 0.9 (≈ 2.33 µM) | > 10 | 4
18 | > 10 | CC(=O)Nc1ccc(NC(=S)Nc2ccc(-c3cc[nH]n3)c(Cl)c2)cc1 [Example 925, N-(4-{3-[3-Chloro-4-(1H-pyrazol-3-yl)-phenyl]-thioureido}-phenyl)-acetamide] | 3.5 (≈ 9.07 µM) | > 10 | 32

More lines, now with the values behind:

Row | SMILES | IC50 (HSV-1) [µg/mL] | IC50 (HCMV wild-type) [µg/mL] | IC50 (VZV strain Ellen) [µg/mL] | inhibition at 10 µg/mL (VZV strain Ellen) [%]
19 | CC(=O)Nc1ccc(NC(=S)Nc2ccccc2[N+](=O)[O-])cc1 [Example 878, N-{4-[3-(2-Nitro-phenyl)-thioureido]-phenyl}-acetamide] | 50 (≈ 151 µM) | 40 (≈ 121 µM) | > 10 | 23
20 | CC(=O)Nc1ccc(NC(=S)Nc2ccc([N+](=O)[O-])cc2)cc1 [Example 879, N-{4-[3-(4-Nitro-phenyl)-thioureido]-phenyl}-acetamide] | > 50 | > 10 | > 10 | 16
21 | COC(=O)COc1c(Cl)cc(NC(=S)Nc2ccc(NC(C)=O)cc2)cc1Cl [Example 883, {4-[3-(4-Acetylamino-phenyl)-thioureido]-2,6-dichloro-phenoxy}-acetic acid methyl ester] | 50 (≈ 113 µM) | > 10 | > 10 | 17
22 | CCOC(=O)COc1c(Cl)cc(NC(=S)Nc2ccc(NC(C)=O)cc2)cc1Cl [Example 884, {4-[3-(4-Acetylamino-phenyl)-thioureido]-2,6-dichloro-phenoxy}-acetic acid ethyl ester] | > 50 | > 10 | > 10 | 21
23 | CC(=O)Nc1ccc(NC(=S)Nc2cc(Cl)c(Oc3ccccc3)c(Cl)c2)cc1 [Example 885, N-{4-[3-(3,5-Dichloro-4-phenoxy-phenyl)-thioureido]-phenyl}-acetamide] | 15 (≈ 33.6 µM) | > 10 | > 10 | 45
24 | CC(=O)Nc1ccc(NC(=S)Nc2cc(Cl)c(OCC(=O)OC(C)(C)C)c(Cl)c2)cc1 [Example 887, {4-[3-(4-Acetylamino-phenyl)-thioureido]-2,6-dichloro-phenoxy}-acetic acid tert-butyl ester] | 45 (≈ 92.9 µM) | > 10 | > 10 | 38
25 | COc1c(I)cc(NC(=S)Nc2ccc(NC(C)=O)cc2)c(OC)c1I [Example 893, N-{4-[3-(3,5-Diiodo-2,4-dimethoxy-phenyl)-thioureido]-phenyl}-acetamide] | 20 (≈ 33.5 µM) | 7 (≈ 11.7 µM) | 2.5 (≈ 4.19 µM) | 76
26 | COc1c(Br)cc(NC(=S)Nc2ccc(NC(C)=O)cc2)c(OC)c1Br [Example 894, N-{4-[3-(3,5-Dibromo-2,4-dimethoxy-phenyl)-thioureido]-phenyl}-acetamide] | 12 (≈ 23.8 µM) | 7 (≈ 13.9 µM) | > 10 | 56
27 | COc1ccc(NC(=S)Nc2ccc(NC(C)=O)cc2)c(OC)n1 [Example 896, N-{4-[3-(2,6-Dimethoxy-pyridin-3-yl)-thioureido]-phenyl}-acetamide] | 12 (≈ 34.6 µM) | > 50 | > 10 | 17
28 | CC(=O)Nc1ccc(NC(=S)Nc2cc(Cl)c(OCCOC(C)=O)c(Cl)c2)cc1 [Example 897, Acetic acid 2-{4-[3-(4-acetylamino-phenyl)-thioureido]-2,6-dichloro-phenoxy}-ethyl ester] | 40 (≈ 87.7 µM) | > 10 | > 10 | 33
29 | CC(=O)Nc1ccc(NC(=S)Nc2ccc(C#N)c(Cl)c2)cc1 [Example 899, N-{4-[3-(3-Chloro-4-cyano-phenyl)-thioureido]-phenyl}-acetamide] | 10 (≈ 29 µM) | > 10 | > 10 | 7
30 | CC(=O)Nc1ccc(NC(=S)Nc2cc(Cl)c(-n3cccc3)cc2Oc2ccc(Cl)cc2)cc1 [Example 900, N-(4-{3-[5-Chloro-2-(4-chloro-phenoxy)-4-pyrrol-1-yl-phenyl]-thioureido}-phenyl)-acetamide] | > 10 | 2 (≈ 3.91 µM) | 2.5 (≈ 4.89 µM) | 124

Reference: US6335350B1, “Acetamide and substituted acetamide-containing thiourea inhibitors of herpes viruses” (American Home Products Corporation, priority 1998, dated 2002)
